Among the data in patent US8343963B2, “Sulfamoyl-phenyl-ureido compounds and their use as medicament” (4SC AG, priority 2009, dated 2013) are IC50 values, retold here.

pIC50: −log10 of the molar value.

This test deals with multiresistant Dd2 strain of Plasmodium falciparum. The experiment in a line: Antiplasmodial activity against Dd2 strain of Plasmodium falciparum ([8-3H]hypoxanthine incorporation). The conditions noted are these: 66 h, P. falciparum Dd2, 48 h + 18 h with [8-3H]hypoxanthine, 50% parasite growth inhibition, read-out: Antiplasmodia activity (IC50 class). The class given is cell-based. As to the method:
For the determination of the antiplasmodial activity of the compounds described above, the multiresistant Dd2 strain of Plasmodium falciparum was used. The incorporation of [8-^3H]hypoxanthine into the parasitic nucleic acids was measured. The plasmodia were incubated at 0.3% parasitaemia and an erythrocyte haematocrit of 2.5% in the presence of different concentrations of the compounds in a final volume of 200 μl. The medium employed was RPMI 1640 which contained 10% of heat-treated human serum and 3 mg/l of gentamycin. In the incubations, the concentrations of the compounds varied from 0.001 to 100 μM. After 48 h, each batch was treated with 50 μl of [8-^3H]hypoxanthine (1 mCi/ml) and incubated for a further 18 h. The cells were filtered off, washed and suspended in 20 μl of scintillation fluid. The radioactive hypoxanthine absorbed by the parasites was then quantified using a scintillation counter. The results were presented graphically and the IC50 value was determined using a fitting function. The value IC50, the ‘inhibition constant’, indicates the value in μMol/l at which 50% parasite growth inhibition occurs (R. E. Desjardins, et al., Antimicrobiol. Agent Chemother. 16, pp. 710-718, 1979; J. D. Chulay, et al., Exp. Parasitol. 55, pp. 138-146, 1983).
For orientation: pIC50 means the negative decadic logarithm of the IC50, by convention in mol/L. Regarding `N=C(c1cccc(NC(=O)Nc2ccc(S(=O)(=O)NCc3ccc(S(N)(=O)=O)cc3)cc2)c1)N1CCN(CC2CCCO2)CC1` (stereo not drawn) [Compound 68, 4-(3-(3-(imino(4-((tetrahydrofuran-2-yl)methyl)piperazin-1-yl)methyl)phenyl)ureido)-N-(4-sulfamoylbenzyl)benzene sulfonamide], the pIC50 was 6.70 to 7.70.

`N=C(c1cccc(NC(=O)Nc2ccc(S(=O)(=O)NCc3ccc(S(N)(=O)=O)cc3)cc2)c1)N1CCC(O)CC1` [Compound 48, 4-(3-(3-((4-hydroxypiperidin-1-yl)(imino)methyl)phenyl)ureido)-N-(4-sulfamoylbenzyl)benzenesulfonamide]: the pIC50 was 6.70 to 7.70.

As to `CCCCN1CCN(C(=N)c2cccc(NC(=O)Nc3ccc(S(=O)(=O)Nc4ccnc5cc(Cl)ccc45)cc3)c2)CC1` [Compound 22, 4-(3-(3-((4-butylpiperazin-1-yl)(imino)methyl)phenyl)ureido)-N-(7-chloroquinolin-4-yl)benzenesulfonamide], the pIC50 is not above 6.00.

For the compound `CCOC(=O)N1CCN(C(=N)c2cccc(NC(=O)Nc3ccc(S(=O)(=O)NCc4ccc(S(N)(=O)=O)cc4)cc3)c2)CC1` [Compound 61, ethyl 4-(imino(3-(3-(4-(N-(4-sulfamoylbenzyl)sulfamoyl)phenyl)ureido)phenyl)methyl)piperazine-1-carboxylate], the pIC50 was more than 7.70.

As for `COCCN(CCOC)C(=N)c1cccc(NC(=O)Nc2ccc(S(=O)(=O)c3ccc(Br)cc3)cc2)c1` [Compound 13, 3-(3-(4-(4-bromophenylsulfonyl)phenyl)ureido)-N,N-bis(2-methoxyethyl)benzimidamide], the pIC50 was not above 6.00.

Regarding `CCCCN1CCN(C(=N)c2cccc(NC(=O)Nc3ccc(S(=O)(=O)NC)cc3)c2)CC1` [Compound 18, 4-(3-(3-((4-butylpiperazin-1-yl)(imino)methyl)phenyl)ureido)-N-methylbenzenesulfonamide], the pIC50 was not above 6.00.

Take `CCCCN1CCN(C(=N)c2cccc(NC(=O)Nc3ccc(S(=O)(=O)N(CCO)CCO)cc3)c2)CC1` [Compound 20, 4-(3-(3-((4-butylpiperazin-1-yl)(imino)methyl)phenyl)ureido)-N,N-bis(2-hydroxyethyl)benzenesulfonamide]: the pIC50 is not above 6.00.

Consider `CN1CCN(C(=N)c2cccc(NC(=O)Nc3ccc(S(=O)(=O)Nc4ccc(S(N)(=O)=O)cc4)cc3)c2)CC1` [Compound 26, 4-(3-(3-(imino(4-methylpiperazin-1-yl)methyl)phenyl)ureido)-N-(4-sulfamoylphenyl)benzenesulfonamide], for which the pIC50 is not above 6.00.

Turning to `CCCCN1CCN(C(=N)c2ccc(NC(=O)Nc3ccc(S(=O)(=O)NCc4ccc(S(N)(=O)=O)cc4)cc3)cc2)CC1` [Compound 71, 4-(3-(4-((4-butylpiperazin-1-yl)(imino)methyl)phenyl)ureido)-N-(4-sulfamoylbenzyl)benzene sulfonamide], the pIC50 is 6.70 to 7.70.

As for `CCCCC(=O)N1CCN(C(=N)c2cccc(NC(=O)Nc3ccc(S(=O)(=O)NCc4ccc(S(N)(=O)=O)cc4)cc3)c2)CC1` [Compound 59, 4-(3-(3-(imino(4-pentanoylpiperazin-1-yl)methyl)phenyl)ureido)-N-(4-sulfamoylbenzyl)benzenesulfonamide], the pIC50 is 6.70 to 7.70.

For the compound `CCCCN1CCN(C(=N)c2cccc(NC(=O)Nc3ccc(S(=O)(=O)NCCC)cc3)c2)CC1` [Compound 19, 4-(3-(3-((4-butylpiperazin-1-yl)(imino)methyl)phenyl)ureido)-N-propylbenzenesulfonamide], the pIC50 is not above 6.00.

On to `N=C(c1cccc(NC(=O)Nc2ccc(S(N)(=O)=O)cc2)c1)N1CCC(O)CC1` [Compound 2, 4-(3-(3-((4-hydroxypiperidin-1-yl)(imino)methyl)phenyl)ureido)benzenesulfonamide], for which the pIC50 is not above 6.00.

In the case of `N=C(c1cccc(NC(=O)Nc2ccc(S(=O)(=O)NCc3ccc(S(N)(=O)=O)cc3)cc2)c1)N1CCCC1` [Compound 46, 4-(3-(3-(imino(pyrrolidin-1-yl)methyl)phenyl)ureido)-N-(4-sulfamoylbenzyl)benzenesulfonamide], the pIC50 is 6.70 to 7.70.

Turning to `N=C(c1cccc(NC(=O)Nc2ccc(S(=O)(=O)c3ccc(Br)cc3)cc2)c1)N1CCC(CO)CC1` [Compound 12, 1-(4-(4-bromophenylsulfonyl)phenyl)-3-(3-((4-(hydroxymethyl)piperidin-1-yl)(imino)methyl)phenyl)urea], the negative-log IC50 (pIC50) was not above 6.00.

For the compound `CCN(CC)CCN(C)C(=N)c1cccc(NC(=O)Nc2ccc(S(=O)(=O)NCc3ccc(S(N)(=O)=O)cc3)cc2)c1` [Compound 47, N-(2-(diethylamino)ethyl)-N-methyl-3-(3-(4-(N-(4-sulfamoylbenzyl)sulfamoyl)phenyl)ureido)benzimidamide], the pIC50 is 6.70 to 7.70.

With `CCCCN1CCN(C(=N)c2cccc(NC(=O)Nc3ccc(S(=O)(=O)NC(C)c4ccc(S(N)(=O)=O)cc4)cc3)c2)CC1` (stereo not drawn) [Compound 42, 4-(3-(3-((4-butylpiperazin-1-yl)(imino)methyl)phenyl)ureido)-N-(1-(4-sulfamoylphenyl)ethyl)benzenesulfonamide], the pIC50 is 6.00 to 6.68.

On to `N=C(c1cccc(NC(=O)Nc2ccc(S(=O)(=O)c3ccc(Br)cc3)cc2)c1)N1CCC(O)CC1` [Compound 5, 1-(4-(4-bromophenylsulfonyl)phenyl)-3-(3-((4-hydroxypiperidin-1-yl)(imino)methyl)phenyl)urea], for which the pIC50 was 6.70 to 7.70.

Turning to `CCCCN1CCN(C(=N)c2cccc(NC(=O)Nc3ccc(S(=O)(=O)c4ccc(Br)cc4)cc3)c2)CC1` [Compound 4, 1-(4-(4-bromophenylsulfonyl)phenyl)-3-(3-((4-butylpiperazin-1-yl)(imino)methyl)phenyl)urea], the pIC50 is 6.00 to 6.68.

As for `N=C(c1cccc(NC(=O)Nc2ccc(S(=O)(=O)c3ccc([N+](=O)[O-])cc3)cc2)c1)N1CCC(O)CC1` [Compound 10, 1-(3-((4-hydroxypiperidin-1-yl)(imino)methyl)phenyl)-3-(4-(4-nitrophenylsulfonyl)phenyl)urea], the pIC50 is 6.70 to 7.70.

For the compound `N=C(c1cccc(NC(=O)Nc2ccc(S(=O)(=O)Nc3ccc(S(N)(=O)=O)cc3)cc2)c1)N1CCOCC1` [Compound 25, 4-(3-(3-(imino(morpholino)methyl)phenyl)ureido)-N-(4-sulfamoylphenyl)benzenesulfonamide], the pIC50 is not above 6.00.

In the case of `CCCOC(=O)N1CCN(C(=N)c2cccc(NC(=O)Nc3ccc(S(=O)(=O)NCc4ccc(S(N)(=O)=O)cc4)cc3)c2)CC1` [Compound 62, propyl 4-(imino(3-(3-(4-(N-(4-sulfamoylbenzyl)sulfamoyl)phenyl)ureido)phenyl)methyl)piperazine-1-carboxylate], the pIC50 is more than 7.70.

Consider `N=C(c1cccc(NC(=O)Nc2ccc(S(=O)(=O)NCc3ccc(S(N)(=O)=O)cc3)cc2)c1)N1CCSCC1` [Compound 31, 4-(3-(3-(imino(thiomorpholino)methyl)phenyl)ureido)-N-(4-sulfamoylbenzyl)benzenesulfonamide], for which the pIC50 is 6.00 to 6.68.

Turning to `N=C(c1cccc(NC(=O)Nc2ccc(S(N)(=O)=O)cc2)c1)N1CCNCC1` [Compound 3, 4-(3-(3-(imino(piperazin-1-yl)methyl)phenyl)ureido)benzenesulfonamide], the pIC50 is not above 6.00.

`N=C(c1cccc(NC(=O)Nc2ccc(S(=O)(=O)c3ccc(Br)cc3)cc2)c1)N1CCCC1` [Compound 15, 1-(4-(4-bromophenylsulfonyl)phenyl)-3-(3-(imino(pyrrolidin-1-yl)methyl)phenyl)urea]: the pIC50 was 6.70 to 7.70.

On to `N=C(c1cccc(NC(=O)Nc2ccc(S(=O)(=O)NCc3ccc(S(N)(=O)=O)cc3)cc2)c1)N1CCCC1CN1CCCC1` (stereo not drawn) [Compound 50, 4-(3-(3-(imino(2-(pyrrolidin-1-ylmethyl)pyrrolidin-1-yl)methyl)phenyl)ureido)-N-(4-sulfamoylbenzyl)benzenesulfonamide], for which the pIC50 is 6.70 to 7.70.

Take `N=C(c1cccc(NC(=O)Nc2ccc(S(=O)(=O)c3ccc(Br)cc3)cc2)c1)N1CCSCC1` [Compound 14, 1-(4-(4-bromophenylsulfonyl)phenyl)-3-(3-(imino(thiomorpholino)methyl)phenyl)urea]: the pIC50 is 6.70 to 7.70.

Regarding `N=C(c1cccc(NC(=O)Nc2ccc(S(=O)(=O)c3ccc(N)cc3)cc2)c1)N1CCC(O)CC1` [Compound 17, 1-(4-(4-aminophenylsulfonyl)phenyl)-3-(3-((4-hydroxypiperidin-1-yl)(imino)methyl)phenyl)urea], the pIC50 was not above 6.00.

Take `CCCCN1CCN(C(=N)c2cccc(NC(=O)Nc3ccc(S(=O)(=O)NCc4ccccc4)cc3)c2)CC1` [Compound 36, N-benzyl-4-(3-(3-((4-butylpiperazin-1-yl)(imino)methyl)phenyl)ureido)benzenesulfonamide]: the pIC50 was 6.00 to 6.68.

Consider `N=C(c1cccc(NC(=O)Nc2ccc(S(=O)(=O)c3ccc([N+](=O)[O-])cc3)cc2)c1)N1CCSC1` [Compound 9, 1-(3-(imino(thiazolidin-3-yl)methyl)phenyl)-3-(4-(4-nitrophenylsulfonyl)phenyl)urea], for which the pIC50 was not above 6.00.

Regarding `N=C(c1cccc(NC(=O)Nc2ccc(S(=O)(=O)NCc3ccc(S(N)(=O)=O)cc3)cc2)c1)N1CCC(C(N)=O)CC1` [Compound 33, 1-(imino(3-(3-(4-(N-(4-sulfamoylbenzyl)sulfamoyl)-phenyl)ureido)phenyl)methyl)piperidine-4-carboxamide], the pIC50 was 6.70 to 7.70.
